Data taken from US20100120763A1, “IMIDAZO[5,1-C][1,2,4]BENZOTRIAZINE DERIVATIVES AS INHIBITORS OF PHOSPHODIESTERASES” (priority 2008, published 2010).
Where two headings read alike, the source gives them in different places.

Legend:
PDE2A = biological target: T1, PDE2A (Homo sapiens, UniProt O00408); assay: Inhibition of recombinant PDE2A (expressed in baculovirus/SF21-cells), [3H]-cAMP SPA; assay type: biochemical
T1 construct: made in house; host or cells: SF21 insect cells (baculovirus)
Protocol: Inhibition of Recombinant PDE2A (Expressed in Baculovirus/SF21-Cells)
PDE2A (NM002599) was cloned and the gene was inserted in the baculovirus and the enzyme-protein expressed in SF21-cells. The enzyme was isolated from these cells by harvesting the cells by an centrifugation at 200 g to collect the cells. The cells were resuspended in 50 mM Tris-HCl/5 mM MgCl2 buffer (pH=7.4) (Sigma, Deisenhofen, Germany; Merck, Darmstadt, Germany) and lysed by a sonication of the cells (three times for 15 seconds, Labsonic U, Fa. Braun, Degersheim, Switzerland, level “high”). The membrane fraction of PDE2A was obtained by a centrifugation at 48 000 g for 1 h, resuspended in buffer and stored at −70° C.
PDE2A activity was determined in a one step procedure in microtiterplates. The reaction mixture of 100 μl contained 50 mM Tris-HCl/5 mM MgCl2 buffer (pH=7.4) (Sigma, Deisenhofen, Germany; Merck, Darmstadt, Germany), 0.5 μM [3H]-cAMP (Amersham, Buckinghamshire, UK), 1000 nM cGMP and the enzyme. Non-specific enzyme activity was tested in the absence of cGMP. The reaction was initiated by addition of the substrate solution and was carried out at 37° C. for 30 minutes. Enzymatic activity then was stopped by addition of 25 μl SPA-beads (Amersham-Pharmacia). One hour later the mixture was measured in a liquid scintillation counter for microtiterplates (Microbeta Trilux). For pipetting of the incubation mixture the robot Biomek (Fa. Beckman) was routinely used.
For determination of IC50 values the Hill-plot, 2-parameter-model, was used.

PDE10A = biological target: T2, PDE10A (Homo sapiens, UniProt Q9Y233); assay: Inhibition of recombinant PDE10A (baculovirus/SF21 system), [3H]-cAMP SPA; assay type: biochemical; settings: read-out: PDE10A IC50
T2 construct: made in house; host or cells: SF21 insect cells (baculovirus)
T2 sequence (Q9Y233 1-779 isoform Q9Y233-1): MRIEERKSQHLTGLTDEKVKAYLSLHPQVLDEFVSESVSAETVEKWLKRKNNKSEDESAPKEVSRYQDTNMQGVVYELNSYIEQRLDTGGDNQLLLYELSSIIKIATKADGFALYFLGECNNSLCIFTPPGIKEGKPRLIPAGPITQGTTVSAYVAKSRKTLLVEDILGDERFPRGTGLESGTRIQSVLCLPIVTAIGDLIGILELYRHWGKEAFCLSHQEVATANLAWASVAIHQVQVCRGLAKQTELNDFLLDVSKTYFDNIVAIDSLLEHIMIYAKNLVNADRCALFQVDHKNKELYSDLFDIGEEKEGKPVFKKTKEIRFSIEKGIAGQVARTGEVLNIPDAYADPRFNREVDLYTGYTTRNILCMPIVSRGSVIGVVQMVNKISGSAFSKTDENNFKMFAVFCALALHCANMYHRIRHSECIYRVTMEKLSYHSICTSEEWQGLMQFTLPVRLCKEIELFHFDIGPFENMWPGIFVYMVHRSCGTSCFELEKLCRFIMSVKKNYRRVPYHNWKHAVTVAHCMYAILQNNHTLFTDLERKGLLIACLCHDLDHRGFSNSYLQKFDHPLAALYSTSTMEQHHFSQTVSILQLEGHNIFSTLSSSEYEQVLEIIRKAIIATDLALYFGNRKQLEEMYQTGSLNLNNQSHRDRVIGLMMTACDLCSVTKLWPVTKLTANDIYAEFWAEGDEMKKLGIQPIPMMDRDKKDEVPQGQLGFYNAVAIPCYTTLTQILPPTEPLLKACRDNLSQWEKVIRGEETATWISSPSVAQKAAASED
Protocol: Inhibition of Recombinant PDE10A (Baculovirus/SF21 System)
The gene was than inserted into a baculovirus vector, ligated with the baculovirus DNA. The enzyme-protein was expressed in SF21-cells. The enzyme was isolated from these cells by harvesting the cells by an centrifugation at 500 g to collect the cells.
The cells were resuspended in 50 mM Tris-HCl/1 mM EDTA/250 mM Sucrose buffer, pH=7.4 (Sigma, Deisenhofen, Germany; Merck, Darmstadt, Germany) and lysed by sonification of the cells (three times for 15 seconds, Labsonic U, Fa. Braun, Degersheim, Switzerland, level “high”). The cytosolic PDE10A was obtained by a centrifugation at 48,000 g for 1 h in the supernatant and stored at −70° C.
PDE activity was determined in a one step procedure in microtiter plates. The reaction mixture of 100 μl contained 50 mM Tris-HCl/5 mM MgCl2 buffer (pH=7.4, Sigma, Deisenhofen, Germany; Merck, Darmstadt, Germany) 0.1 μM [3H]-cAMP (Amersham, Buckinghamshire, UK) and the enzyme. Non-specific enzyme activity was determined without the enzyme. The reaction was initiated by addition of the substrate solution and was carried out at 37° C. for 30 minutes. Enzymatic activity then was stopped by addition of 25 μl Ysi-SPA-beads (Amersham-Pharmacia). One hour later the mixture was measured in a liquid scintillation counter for microtiter plates (Microbeta Trilux). The Biomek 2000 (Beckman) was used routinely for pipetting of the incubation mixture. […] For determination of IC50 values the Hill-plot, 2-parameter-model, was used.

[1] = recombinant PDE10A1, cytosolic, 0.1 μM [3H]-cAMP, 37° C., 30 minutes

T1 sequence (O00408 whole entry): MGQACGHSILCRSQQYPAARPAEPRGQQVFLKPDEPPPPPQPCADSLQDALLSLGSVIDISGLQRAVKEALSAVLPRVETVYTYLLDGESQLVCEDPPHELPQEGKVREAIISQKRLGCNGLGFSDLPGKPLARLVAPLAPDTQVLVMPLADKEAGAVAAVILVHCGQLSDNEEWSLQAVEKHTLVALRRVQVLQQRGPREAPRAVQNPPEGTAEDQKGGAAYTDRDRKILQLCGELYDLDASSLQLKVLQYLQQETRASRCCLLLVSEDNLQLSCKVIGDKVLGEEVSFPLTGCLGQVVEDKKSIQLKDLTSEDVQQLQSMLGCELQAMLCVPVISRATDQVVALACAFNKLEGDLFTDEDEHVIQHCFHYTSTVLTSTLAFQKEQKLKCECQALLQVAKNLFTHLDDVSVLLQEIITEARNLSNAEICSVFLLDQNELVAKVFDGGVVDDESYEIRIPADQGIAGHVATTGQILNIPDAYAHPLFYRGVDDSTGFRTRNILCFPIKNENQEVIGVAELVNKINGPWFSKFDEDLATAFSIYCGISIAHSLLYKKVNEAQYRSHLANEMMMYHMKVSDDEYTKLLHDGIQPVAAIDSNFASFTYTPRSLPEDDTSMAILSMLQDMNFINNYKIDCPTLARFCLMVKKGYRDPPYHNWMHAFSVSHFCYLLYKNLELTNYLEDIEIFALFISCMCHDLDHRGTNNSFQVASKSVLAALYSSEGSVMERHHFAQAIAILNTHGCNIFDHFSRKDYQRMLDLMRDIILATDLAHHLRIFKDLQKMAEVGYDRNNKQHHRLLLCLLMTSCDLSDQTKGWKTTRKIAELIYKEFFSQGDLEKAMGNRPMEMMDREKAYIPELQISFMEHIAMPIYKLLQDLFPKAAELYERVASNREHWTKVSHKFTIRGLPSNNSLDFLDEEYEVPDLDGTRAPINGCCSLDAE

Row | IC50 (PDE10A; [1]) | IC50 (PDE2A) | Compound | IC50 (PDE2A; recombinant PDE2A, membrane fraction, 0.5 μM [3H]-cAMP, 1000 nM cGMP, 37° C., 30 minutes, read-out: PDE2A IC50) | IC50 (PDE10A)
1 | – | – | 8-fluoro-6-methoxy-3-methyl-1-(2-methylpyridin-3-yl)imidazo[5,1-c][1,2,4]benzotriazine [Example 130] | – | 7.84 nM
2 | 4.16 nM | 775 nM | COc1cc(OC)c2nnc3c(C)nc(-c4cnccc4C)n3c2c1 [Example 45, 6,8-dimethoxy-3-methyl-1-(4-methylpyridin-3-yl)imidazo[5,1-c][1,2,4]benzotriazine] | – | –
3 | 2.06 nM | 589 nM | COc1cc(OC)c2nnc3c(C)nc(-c4ccncc4C)n3c2c1 [Example 47, 6,8-dimethoxy-3-methyl-1-(3-methylpyridin-4-yl)-imidazo[5,1-c][1,2,4]benzotriazine] | – | –
4 | 1.48 nM | 196 nM | COc1cc(OC)c2nnc3c(C)nc(-c4cccnc4C)n3c2c1 [Example 48, 6,8-dimethoxy-3-methyl-1-(2-methylpyridin-3-yl)imidazo[5,1-c][1,2,4]benzotriazine] | – | –
5 | 0.7 nM | 210 nM | COc1cc(OC)c2nnc3c(C)nc(-c4c(C)n[nH]c4C)n3c2c1 [Example 51, 1-(3,5-dimethyl-1H-pyrazol-4-yl)-6,8-dimethoxy-3-methylimidazo[5,1-c][1,2,4]benzotriazine] | – | –
6 | 1.85 nM | 292 nM | COc1cc(OC)c2nnc3c(C)nc(-c4c(C)nn(C)c4C)n3c2c1 [Example 52, 6,8-dimethoxy-3-methyl-1-(1,3,5-trimethyl-1H-pyrazol-4-yl)imidazo[5,1-c][1,2,4]benzotriazine] | – | –
7 | 3.31 nM | 172 nM | COc1cccc2c1nnc1c(C)nc(-c3ccccc3C)n12 [Example 60, 6-methoxy-3-methyl-1-(2-methylphenyl)imidazo[5,1-c][1,2,4]benzotriazine] | – | –
8 | 2.41 nM | 103 nM | COc1cccc2c1nnc1c(C)nc(-c3ccccc3Cl)n12 [Example 61, 1-(2-chlorophenyl)-6-methoxy-3-methylbenzo[e]imidazo[5,1-c][1,2,4]triazine] | – | –
9 | 8.34 nM | 442 nM | COc1cccc2c1nnc1c(C)nc(-c3ccncc3C)n12 [Example 62, 6-methoxy-3-methyl-1-(3-methylpyridin-4-yl)imidazo[5,1-c][1,2,4]benzotriazine] | – | –
10 | 3.99 nM | 437 nM | COc1cc(N2CCOCC2)cc2c1nnc1c(C)nc(-c3ccncc3C)n12 [Example 63, 6-methoxy-3-methyl-1-(3-methylpyridin-4-yl)-8-morpholin-4-ylimidazo[5,1-c][1,2,4]benzotriazine] | – | –
11 | 1.92 nM | 70.4 nM | COc1cc(N2CCOCC2)cc2c1nnc1c(C)nc(-c3cccnc3C)n12 [Example 64, 6-methoxy-3-methyl-1-(2-methylpyridin-3-yl)-8-morpholin-4-ylimidazo[5,1-c][1,2,4]benzotriazine] | – | –
12 | 0.85 nM | 50.4 nM | COc1cc(N2CCOCC2)cc2c1nnc1c(C)nc(-c3ccccc3Cl)n12 [Example 65, 1-(2-chlorophenyl)-6-methoxy-3-methyl-8-morpholin-4-ylimidazo[5,1-c][1,2,4]benzotriazine] | – | –
13 | 1.53 nM | 110 nM | COc1cc(N2CCOCC2)cc2c1nnc1c(C)nc(-c3ccccc3C)n12 [Example 66, 6-methoxy-3-methyl-1-(2-methylphenyl)-8-morpholin-4-ylimidazo[1,5-c][1,2,4]benzotriazine] | – | –
14 | 16.8 nM | 64.8 nM | COc1cccc(-c2nc(C)c3nnc4c(F)cc(OC)cc4n23)c1 [Example 67, 6-fluoro-8-methoxy-1-(3-methoxyphenyl)-3-methylimidazo[5,1-c][1,2,4]benzotriazine] | – | –
15 | 64.2 nM | 109 nM | COc1cc(F)c2nnc3c(C)nc(-c4cc(Cl)ccc4OC)n3c2c1 [Example 68, 1-(5-chloro-2-methoxyphenyl)-6-fluoro-8-methoxy-3-methylimidazo[5,1-c][1,2,4]benzotriazine] | – | –
16 | 34.7 nM | 55.5 nM | COc1cc(F)c2nnc3c(C)nc(-c4ccc(F)cc4C)n3c2c1 [Example 69, 6-fluoro-1-(4-fluoro-2-methylphenyl)-8-methoxy-3-methylimidazo[5,1-c][1,2,4]benzotriazine] | – | –
17 | 12.5 nM | 22.8 nM | COc1cc(F)c2nnc3c(C)nc(-c4ccc(F)cc4Cl)n3c2c1 [Example 70, 1-(2-chloro-4-fluorophenyl)-6-fluoro-8-methoxy-3-methylimidazo[5,1-c][1,2,4]benzotriazine] | – | –
18 | 11.4 nM | 5.53 nM | COc1cc(F)c2nnc3c(C)nc(-c4ccc(C)cc4Cl)n3c2c1 [Example 71, 1-(2-chloro-4-methylphenyl)-6-fluoro-8-methoxy-3-methylimidazo[5,1-c][1,2,4]benzotriazine] | – | –
19 | 7.77 nM | 14.4 nM | COc1cc(F)c2nnc3c(C)nc(-c4cc(C)ccc4Cl)n3c2c1 [Example 72, 1-(2-chloro-5-methylphenyl)-6-fluoro-8-methoxy-3-methylimidazo[5,1-c][1,2,4]benzotriazine] | – | –
20 | 18.9 nM | 15.1 nM | COc1cc(F)c2nnc3c(C)nc(-c4cc(F)ccc4C)n3c2c1 [Example 73, 6-fluoro-1-(5-fluoro-2-methylphenyl)-8-methoxy-3-methylimidazo[5,1-c][1,2,4]benzotriazine] | – | –
21 | 38.5 nM | 134 nM | COc1cc(F)c2nnc3c(C)nc(-c4ccc(C)cc4F)n3c2c1 [Example 74, 6-fluoro-1-(2-fluoro-4-methylphenyl)-8-methoxy-3-methylimidazo[5,1-c][1,2,4]benzotriazine] | – | –
22 | 15 nM | 13.9 nM | COc1cc(F)c2nnc3c(C)nc(-c4cc(C)ccc4F)n3c2c1 [Example 75, 6-fluoro-1-(2-fluoro-5-methylphenyl)-8-methoxy-3-methylimidazo[5,1-c][1,2,4]benzotriazine] | – | –
23 | 9.6 nM | 9.3 nM | COc1ccc(F)c(-c2nc(C)c3nnc4c(F)cc(OC)cc4n23)c1 [Example 76, 6-fluoro-1-(2-fluoro-5-methoxyphenyl)-8-methoxy-3-methylimidazo[5,1-c][1,2,4]benzotriazine] | – | –
24 | 30.9 nM | 10.3 nM | CCOc1ccc(Cl)c(-c2nc(C)c3nnc4c(F)cc(OC)cc4n23)c1 [Example 77, 1-(2-chloro-5-ethoxyphenyl)-6-fluoro-8-methoxy-3-methylimidazo[5,1-c][1,2,4]benzotriazine] | – | –
25 | 7.13 nM | – | COc1cc(F)cc2c1nnc1c(C)nc(-c3cc(C)ccc3F)n12 [Example 105, 8-fluoro-1-(2-fluoro-5-methylpehnyl)-6-methoxy-3-methylimidazo[5,1-c][1,2,4]benzotriazine] | – | –
26 | 2.02 nM | – | COc1cc(F)cc2c1nnc1c(C)nc(-c3cc(F)ccc3Cl)n12 [Example 118, 1-(2-chloro-5-fluorophenyl)-8-fluoro-6-methoxy-3-methylimidazo[5,1-c][1,2,4]benzotriazine] | – | –
27 | 32.7 nM | – | Cc1cnccc1-c1nc(C)c2nnc3c(Cl)cc(C(F)(F)F)cc3n12 [Example 132, 6-Chloro-3-methyl-1-(3-methylpyridin-4-yl)-8-(trifluoromethyl)imidazo[5,1-c][1,2,4]benzotriazine] | – | –
28 | 10.6 nM | – | COc1ccc(Cl)cc1-c1nc(C)c2nnc3c(OC)cc(C(F)(F)F)cc3n12 [Example 142, 1-(5-Chloro-2-methoxyphenyl)-6-methoxy-3-methyl-8-(trifluoromethyl)benzo[e]imidazo[5,1-c][1,2,4]triazine] | – | –

Row | Compound | IC50 (PDE10A; [1]) | IC50 (PDE2A) | IC50 (PDE2A; recombinant PDE2A, membrane fraction, 0.5 μM [3H]-cAMP, 1000 nM cGMP, 37° C., 30 minutes, read-out: PDE2A IC50) | IC50 (PDE10A)
29 | 8-fluoro-1-isobutyl-3-methylbenzo[e]imidazo[5,1-c][1,2,4]triazine [Example 9] | 156 nM | – | 302 nM | –
30 | 8-fluoro-6-methoxy-3-methyl-1-(3-methylpyridin-4-yl)imidazo[5,1-c][1,2,4]benzotriazine [Example 131] | 7.2 nM | – | – | –
